Marks after values point to notes of the source that are not given here.
Experiments:
[1] = Animal assay (I): high fat diet rats, weight gain and body fat; assay type: in vivo, Sprague-Dawley (SD) male rats; conditions: positive control group
Description: Sprague-Dawley (SD) male rats were used in this example. There were six groups for test, respectively as a normal group, an obese group, a positive control group (Orlistat®, 18.6 mg/kg BW), a low-dose experimental group (the formulation LB004: 223.2 mg/kg BW), a medium-dose experimental group (the formulation LB004: 446.4 mg/kg BW), and a high-dose experimental group (the formulation LB004: 892.8 mg/kg BW). Ten male rats were used in each group. During the 8-week experiment period, high fat diets were fed ad libitum for all groups except […]. Three formulation LB004 doses of the present invention were orally given simultaneously during the experiment and body weight loss and lipid mass reduction were evaluated. Bodyweight, food and water intake were recorded weekly. In the end of the test, total amount of fat and the percentage of fat dry weight were determined.
In the end of the experiment, the rats were sacrificed. Epididymis fat, perinephric fat, and mesenteric fat were weighted and the total amount of internal fat was calculated. In addition, the fat of groin and the extraperitoneal fat were weighted to calculate the amount of subcutaneous fat.
In addition, the wet weights of rat bodies were weighed. Then the rat bodies were dried in an oven at 105° C. to constant dry weight for measuring dry weights of the rat bodies. The rat bodies were pulverized by uniform homogenizer. The percentage of dry weight and the amount of crude fat of whole animals is calculated by diethyl ether extraction at 2 to 3 different sampling points.

[2] = Animal assay (IV): high fat diet mice, 8 weeks, weight gain and fat; assay type: in vivo, B6 strain male mice
Description: B6 strain male mice were used in this example. There were five groups for test, respectively as the obese group, the resveratrol (61.5 mg/kg BW), the green tea extract (123 mg/kg BW), and experimental groups such as the formulation LB001 (338.25 mg/kg BW) and the formulation LB0008 (326 mg/kg BW). Five male animals were used in each group. During the test, high fat diets and experimental substrates were fed for all groups to induce obesity during eight weeks. In the experimental duration, weight and the average daily intake were recorded. In the end of the experiment, the mice were sacrificed to weight epididymis fat, perinephric fat, and mesenteric fat and calculate the total amount of visceral fat; groin fat and extra-abdominal fat were weighed to calculate the amount of subcutaneous fat.

CCCCCCCCCCC[C@@H](C[C@@H]1OC(=O)[C@H]1CCCCCC)OC(=O)[C@H](CC(C)C)NC=O [Orlistat®, Orlistat]
fat (dry weight) ([1]; 18.6 mg/kg B.W., 8 weeks): 31.6 ± 6.0^a % | total fat mass ([1]; 18.6 mg/kg B.W., 8 weeks): 38.1 ± 8.8^c g | total weight gain ([1]; 18.6 mg/kg B.W., 8 weeks): 240.1 ± 24.4^c g | body fat decrease compared with the obese group ([1]; 18.6 mg/kg BW): 23.9% | body weight decline compared with the obese group ([1]; 18.6 mg/kg BW): 12.0% | decrease of percentage of fat dry weight compared with the obese group ([1]; 18.6 mg/kg BW): 17.4%

Oc1ccc(C=Cc2cc(O)cc(O)c2)cc1 [resveratrol]
visceral fat, subcutaneous fat, and total fat mass compared with the obese group ([2]; resveratrol 61.5 mg/kg BW, FIG. 10): no statistical difference | inhibitory effect on weight gain ([2]; resveratrol alone 61.5 mg/kg BW, FIG. 9): poor and had no statistical difference from the obese group

Reference: patent US20150306165A1, “PLANT EXTRACT COMPOSITION FOR INHIBITING ADIPOCYTES, REDUCING BODY FAT, PROMOTING WEIGHT LOSS AND INCREASING LIPID METABOLISM AS WELL AS APPLICATION THEREOF” (CALIWAY BIOMEDICAL CO., LTD., priority 2014, published 2015)
